Measurements reported in US7598382B2, “Aryl substituted imidazoquinolines” (Coley Pharmaceutical Group, Inc., priority 2002, dated 2009).
Counter-ions that a name gives are not always drawn.

melting point [°C]	Compound
> 250	CCCc1nc2c(N)nc3cc(-c4cccnc4)ccc3c2n1CC1CCN(S(C)(=O)=O)CC1 (as salt: HCl) (hydrate or solvate) [Example 411, 1-{[1-(Methanesulfonyl)piperidin-4-yl]methyl}-2-propyl-7-(pyridin-3-yl)-1H-imidazo[4,5-c]quinolin-4-amine]
145 to 146	CCOCc1nc2c(N)nc3cc(-c4cccc(C(=O)N5CCCC5)c4)ccc3c2n1CCCOC (as salt: HCl) [Example 175, {3-[4-Amino-2-ethoxymethyl-1-(3-methoxypropyl)-1H-imidazo[4,5-c]quinolin-7-yl]phenyl}pyrrolidin-1-ylmethanone]
254 to 255	CCOCc1nc2c(N)nc3cc(-c4cccnc4)ccc3c2n1CC1CCN(S(C)(=O)=O)CC1 (as salt: HCl) [Example 178, 2-Ethoxymethyl-1-{[1-(methanesulfonyl)piperidin-4-yl]methyl}-7-(pyridin-3-yl)-1H-imidazo[4,5-c]quinolin-4-amine]
> 250	CCCc1nc2c(N)nc3cc(CCc4ccc5sc(C)nc5c4)ccc3c2n1CC(C)C (as salt: HCl) [Example 457, 7-[2-(2-Methylbenzothiazol-5-yl)ethyl]-1-(2-methylpropyl)-2-propyl-1H-imidazo[4,5-c]quinolin-4-amine]
> 250	CCCc1nc2c(N)nc3cc(CCc4ccc(OC)cc4)ccc3c2n1CC(C)C (as salt: HCl) [Example 459, 7-[2-(4-Methoxyphenyl)ethyl]-1-(2-methylpropyl)-2-propyl-1H-imidazo[4,5-c]quinolin-4-amine]
> 250	CCCc1nc2c(N)nc3cc(CCc4ccccc4OC)ccc3c2n1CC(C)C (as salt: HCl) [Example 460, 7-[2-(2-Methoxyphenyl)ethyl]-1-(2-methylpropyl)-2-propyl-1H-imidazo[4,5-c]quinolin-4-amine]
> 250	CCOCc1nc2c(N)nc3cc(-c4cccnc4)ccc3c2n1CC1CCNCC1 (as salt: hydrochloride) [Example 177, 2-Ethoxymethyl-1-(piperidin-4-ylmethyl)-7-(pyridin-3-yl)-1H-imidazo[4,5-c]quinolin-4-amine trihydrochloride]
> 250	CCc1nc2c(N)nc3cc(-c4cccnc4)ccc3c2n1CC1CCNCC1 (as salt: hydrochloride) [Example 405, 2-Ethyl-1-(piperidin-4-ylmethyl)-7-(pyridin-3-yl)-1H-imidazo[4,5-c]quinolin-4-amine trihydrochloride]
> 250	CCCc1nc2c(N)nc3cc(-c4cccnc4)ccc3c2n1CC1CCNCC1 (as salt: hydrochloride) [Example 410, 1-(Piperidin-4-ylmethyl)-2-propyl-7-(pyridin-3-yl)-1H-imidazo[4,5-c]quinolin-4-amine trihydrochloride]
> 250	CCOCc1nc2c(N)nc3cc(-c4cccnc4)ccc3c2n1CC1CCCCN1 (centres unmarked) (as salt: hydrochloride) [Example 491, 2-Ethoxymethyl-1-(piperidin-2-ylmethyl)-7-(pyridin-3-yl)-1H-imidazo[4,5-c]quinolin-4-amine trihydrochloride]
130 to 132	CCOCc1nc2c(N)nc3cc(-c4cccnc4)ccc3c2n1CC1CCN(C(=O)C(C)C)CC1 (hydrate or solvate) [Example 179, 2-Ethoxymethyl-1-[(1-isobutyrylpiperidin-4-yl)methyl]-7-(pyridin-3-yl)-1H-imidazo[4,5-c]quinolin-4-amine]
224 to 225	CCOCc1nc2c(N)nc3cc(-c4cccnc4)ccc3c2n1CC1CCN(C(=O)N2CCOCC2)CC1 (hydrate or solvate) [Example 180, 2-Ethoxymethyl-1-{[1-(morpholin-4-ylcarbonyl)piperidin-4-yl]methyl}-7-(pyridin-3-yl)-1H-imidazo[4,5-c]quinolin-4-amine]
72 to 75	CCCCCCCCCCCCCCCC(=O)N1CCC(Cn2c(COCC)nc3c(N)nc4cc(-c5cccnc5)ccc4c32)CC1 (hydrate or solvate) [Example 181, 2-Ethoxymethyl-1-[(1-palmitoylpiperidin-4-yl)methyl]-7-(pyridin-3-yl)-1H-imidazo[4,5-c]quinolin-4-amine]
184 to 187	COCCc1nc2c(N)nc3cc(-c4cccc(CO)c4)ccc3c2n1CCCN1CCCC1=O (hydrate or solvate) [Example 185, 1-{3-[4-Amino-7-(3-hydroxymethylphenyl)-2-(2-methoxyethyl)-1H-imidazo[4,5-c]quinolin-1-yl]propyl}pyrrolidin-2-one]
207 to 210	COCCc1nc2c(N)nc3ccc(-c4ccccc4)cc3c2n1CCCN1CCCC1=O (hydrate or solvate) [Example 187, 1-{3-[4-Amino-2-(2-methoxyethyl)-8-phenyl-1H-imidazo[4,5-c]quinolin-1-yl]propyl}pyrrolidin-2-one]
164 to 167	COCCc1nc2c(N)nc3ccc(-c4cccc(C(C)=O)c4)cc3c2n1CCCN1CCCC1=O (hydrate or solvate) [Example 189, 1-{3-[8-(3-Acetylphenyl)-4-amino-2-(2-methoxyethyl)-1H-imidazo[4,5-c]quinolin-1-yl]propyl}pyrrolidin-2-one]

melting point [°C]	Compound
156 to 158	CCOCc1nc2c(N)nc3cc(-c4ccccc4)ccc3c2n1CC1CCN(C(=O)C(C)C)CC1 (hydrate or solvate) [Example 194, 2-Ethoxymethyl-1-[(1-isobutyrylpiperidin-4-yl)methyl]-7-phenyl-1H-imidazo[4,5-c]quinolin-4-amine]
196 to 198	CCOCc1nc2c(N)nc3cc(-c4cccnc4)ccc3c2n1CCCCNC(=O)C1CCCC1 (hydrate or solvate) [Example 374, N-{4-[4-Amino-2-ethoxymethyl-7-(pyridin-3-yl)-1H-imidazo[4,5-c]quinolin-1-yl]butyl}cyclopentanecarboxamide]
186 to 188	CCOCc1nc2c(N)nc3cc(-c4cccnc4)ccc3c2n1CCCCNS(C)(=O)=O (hydrate or solvate) [Example 375, N-{4-[4-Amino-2-ethoxymethyl-7-(pyridin-3-yl)-1H-imidazo[4,5-c]quinolin-1-yl]butyl}methanesulfonamide]
144 to 146	CCCC(=O)NCCCCn1c(CCC)nc2c(N)nc3cc(-c4cccnc4)ccc3c21 (hydrate or solvate) [Example 380, N-{4-[4-Amino-2-propyl-7-(pyridin-3-yl)-1H-imidazo[4,5-c]quinolin-1-yl]butyl}butyramide]
168 to 170	CCCc1nc2c(N)nc3cc(-c4cccnc4)ccc3c2n1CCCCNC(=O)C(C)C (hydrate or solvate) [Example 381, N-{4-[4-Amino-2-propyl-7-(pyridin-3-yl)-1H-imidazo[4,5-c]quinolin-1-yl]butyl}-2-methylpropanamide]
180 to 182	CCCc1nc2c(N)nc3cc(-c4cccnc4)ccc3c2n1CCCCNC(=O)C1CCCC1 (hydrate or solvate) [Example 382, N-{4-[4-Amino-2-propyl-7-(pyridin-3-yl)-1H-imidazo[4,5-c]quinolin-1-yl]butyl}cyclopentanecarboxamide]
184 to 185	CCCNC(=O)NCCCCn1c(CCC)nc2c(N)nc3cc(-c4cccnc4)ccc3c21 (hydrate or solvate) [Example 384]
173 to 175	CCCc1nc2c(N)nc3cc(-c4cccnc4)ccc3c2n1CCCCNC(=O)NC(C)C (hydrate or solvate) [Example 385]
176 to 177	COCc1nc2c(N)nc3cc(-c4cccc(C(=O)N5CCOCC5)c4)ccc3c2n1CC(C)(C)O (hydrate or solvate) [Example 401, {3-[4-Amino-1-(2-hydroxy-2-methylpropyl)-2-methoxymethyl-1H-imidazo[4,5-c]quinolin-7-yl]phenyl}morpholin-4-ylmethanone]
224 to 225	COCc1nc2c(N)nc3cc(-c4cncc(CO)c4)ccc3c2n1CC(C)(C)O (hydrate or solvate) [Example 402, 1-[4-Amino-7-(5-hydroxymethylpyridin-3-yl)-2-methoxymethyl-1H-imidazo[4,5-c]quinolin-1-yl]-2-methylpropan-2-ol]
228 to 229	CCc1nc2c(N)nc3cc(-c4cccnc4)ccc3c2n1CC1CCN(S(C)(=O)=O)CC1 (hydrate or solvate) [Example 406, 2-Ethyl-1-{[1-(methanesulfonyl)piperidin-4-yl]methyl}-7-(pyridin-3-yl)-1H-imidazo[4,5-c]quinolin-4-amine]
189 to 191	CCc1nc2c(N)nc3cc(-c4cccnc4)ccc3c2n1CC1CCN(C(=O)C(C)C)CC1 (hydrate or solvate) [Example 407, 1-{4-[4-Amino-2-ethyl-7-(pyridin-3-yl)-1H-imidazo[4,5-c]quinolin-1-ylmethyl]piperidin-1-yl}-2-methylpropan-1-one]
255 to 256	CCc1nc2c(N)nc3cc(-c4cccnc4)ccc3c2n1CC1CCN(C(=O)NC(C)C)CC1 (hydrate or solvate) [Example 408, 4-[4-Amino-2-ethyl-7-(pyridin-3-yl)-1H-imidazo[4,5-c]quinolin-1-ylmethyl]piperidin-1-carboxylic acid isopropylamide]
205 to 207	CCOCc1nc2c(N)nc3cc(-c4cccnc4)ccc3c2n1CCN1CCN(S(C)(=O)=O)CC1 (hydrate or solvate) [Example 415, 2-Ethoxymethyl-1-{2-[4-(methanesulfonyl)piperazin-1-yl]ethyl}-7-(pyridin-3-yl)-1H-imidazo[4,5-c]quinolin-4-amine]
190 to 192	CCOCc1nc2c(N)nc3cc(-c4cccnc4)ccc3c2n1CCN1CCN(C(=O)C(C)C)CC1 (hydrate or solvate) [Example 416, 1-(4-{2-[4-Amino-2-ethoxymethyl-7-(pyridin-3-yl)-1H-imidazo[4,5-c]quinolin-1-yl]ethyl}piperazin-1-yl)-2-methylpropan-1-one]
130 to 131	CCCc1nc2c(N)nc3cc(Cc4ccccc4)ccc3c2n1CC(C)(C)O (hydrate or solvate) [Example 432, 1-(4-Amino-7-benzyl-2-propyl-1H-imidazo[4,5-c]quinolin-1-yl)-2-methylpropan-2-ol]
